Results reported in article PMC8539420, “Discovery of a Potent and Selective JNK3 Inhibitor with Neuroprotective Effect Against Amyloid β-Induced Neurotoxicity in Primary Rat Neurons” (International Journal of Molecular Sciences, 2021).

What was measured:
c-Src = molecular target: T1, c-Src (Homo sapiens, UniProt P12931); assay: Kinase panel screening 1 μM; assay type: biochemical; details: read-out: enzymatic inhibition c-Src
T1 construct: purchased Reaction Biology Corp. (Kinase HotSpot)

PKA = molecular target: T2, PKA (Homo sapiens, UniProt P17612); assay: Kinase panel screening 1 μM; assay type: biochemical; details: read-out: enzymatic inhibition PKA
T2 construct: purchased Reaction Biology Corp. (Kinase HotSpot)

BTK = molecular target: T3, BTK (Homo sapiens, UniProt Q06187); assay: Kinase panel screening 1 μM; assay type: biochemical; details: read-out: enzymatic inhibition BTK
T3 construct: purchased Reaction Biology Corp. (Kinase HotSpot)

c-Kit = molecular target: T4, c-Kit (Homo sapiens, UniProt P10721); assay: Kinase panel screening 1 μM; assay type: biochemical; details: read-out: enzymatic inhibition c-Kit
T4 construct: purchased Reaction Biology Corp. (Kinase HotSpot)

IGF1R = molecular target: T5, IGF1R (Homo sapiens, UniProt P08069); assay: Kinase panel screening 1 μM; assay type: biochemical; details: read-out: enzymatic inhibition IGF1R
T5 construct: purchased Reaction Biology Corp. (Kinase HotSpot)

KDR/VEGFR2 = molecular target: T6, KDR/VEGFR2 (Homo sapiens, UniProt P35968); assay: Kinase panel screening 1 μM; assay type: biochemical; details: read-out: enzymatic inhibition KDR/VEGFR2
T6 construct: purchased Reaction Biology Corp. (Kinase HotSpot)

BRAF (V599E) = molecular target: T7, BRAF (V599E) (Homo sapiens, UniProt P15056, V600E); assay: Kinase panel screening 1 μM; assay type: biochemical; details: read-out: enzymatic inhibition BRAF (V599E)
T7 construct: purchased Reaction Biology Corp. (Kinase HotSpot)

c-MER = molecular target: T8, c-MER (Homo sapiens, UniProt Q12866); assay: Kinase panel screening 1 μM; assay type: biochemical; details: read-out: enzymatic inhibition c-MER
T8 construct: purchased Reaction Biology Corp. (Kinase HotSpot)

ROS/ROS1 = molecular target: T9, ROS/ROS1 (Homo sapiens, UniProt P08922); assay: Kinase panel screening 1 μM; assay type: biochemical; details: read-out: enzymatic inhibition ROS/ROS1
T9 construct: purchased Reaction Biology Corp. (Kinase HotSpot)

FYN = molecular target: T10, FYN (Homo sapiens, UniProt P06241); assay: Kinase panel screening 1 μM; assay type: biochemical; details: read-out: enzymatic inhibition FYN
T10 construct: purchased Reaction Biology Corp. (Kinase HotSpot)

CAMKK1 = molecular target: T11, CAMKK1 (Homo sapiens, UniProt Q8N5S9); assay: Kinase panel screening 1 μM; assay type: biochemical; details: read-out: enzymatic inhibition CAMKK1
T11 construct: purchased Reaction Biology Corp. (Kinase HotSpot)

TRKC = molecular target: T12, TRKC (Homo sapiens, UniProt Q16288); assay: Kinase panel screening 1 μM; assay type: biochemical; details: read-out: enzymatic inhibition TRKC
T12 construct: purchased Reaction Biology Corp. (Kinase HotSpot)

FGFR3 = molecular target: T13, FGFR3 (Homo sapiens, UniProt P22607); assay: Kinase panel screening 1 μM; assay type: biochemical; details: read-out: enzymatic inhibition FGFR3
T13 construct: purchased Reaction Biology Corp. (Kinase HotSpot)

over 38 kinases = assay: Kinase panel screening, single dose 1 μM, whole panel; assay type: biochemical; details: duplicate
c-jun = assay: Amyloid-β-induced JNK activation (c-jun phosphorylation) in neurons; assay type: cell-based; details: rat primary cortical neurons
Text: To establish whether the derived selective JNK3 inhibitor actually has the ability to protect neurons from amyloid β-induced neuronal cell death, which is known as the pathogenesis of Alzheimer’s disease, we performed cytotoxicity experiments using Aβ 42, which is known as the most toxic fragment of the amyloid protein. The amyloid-β is known to mainly cause apoptosis during cell death, so it was confirmed whether the derived selective JNK3 inhibitors affect the activation (cleavage) of caspase-3, which are apoptosis-related signaling substances. […] This means that selective JNK3 inhibitors can inhibit apoptosis signaling by amyloid-β in neurons, thereby inhibiting apoptosis. Additionally, we confirmed that JNK activation was induced by amyloid-β in neurons, and the derived selective JNK3 inhibitors could inhibit JNK activation induced by amyloid-β. […] Then, the experiments for JNK3 inhibitors’ effect on the viability of neurons were conducted for five 6-dihydroxy benzimidazoles (35a-35e) by comparing it with previously published resveratrol as a positive control. On the 5th day of rat primary cortical neuron differentiation, each compound was pre-treated for 90 min and then treated with 10 μM Aβ 42 (HIFP-treated) for 24 or 48 h, and cell viability was measured by MTT assay. […]

LYN = molecular target: T14, LYN (Homo sapiens, UniProt P07948); assay: Kinase panel screening 1 μM; assay type: biochemical; details: read-out: enzymatic inhibition LYN
T14 construct: purchased Reaction Biology Corp. (Kinase HotSpot)

FMS = molecular target: T15, FMS (Homo sapiens, UniProt P07333); assay: Kinase panel screening 1 μM; assay type: biochemical; details: read-out: enzymatic inhibition FMS
T15 construct: purchased Reaction Biology Corp. (Kinase HotSpot)

AXL = molecular target: T16, AXL (Homo sapiens, UniProt P30530); assay: Kinase panel screening 1 μM; assay type: biochemical; details: read-out: enzymatic inhibition AXL
T16 construct: purchased Reaction Biology Corp. (Kinase HotSpot)

LCK = molecular target: T17, LCK (Homo sapiens, UniProt P06239); assay: Kinase panel screening 1 μM; assay type: biochemical; details: read-out: enzymatic inhibition LCK
T17 construct: purchased Reaction Biology Corp. (Kinase HotSpot)

CDK1/cyclin A = molecular target: T18, CDK1/cyclin A (Homo sapiens, UniProt P06493); assay: Kinase panel screening 1 μM; assay type: biochemical; details: read-out: enzymatic inhibition CDK1/cyclin A
T18 construct: purchased Reaction Biology Corp. (Kinase HotSpot)

T17 sequence (P06239 whole entry): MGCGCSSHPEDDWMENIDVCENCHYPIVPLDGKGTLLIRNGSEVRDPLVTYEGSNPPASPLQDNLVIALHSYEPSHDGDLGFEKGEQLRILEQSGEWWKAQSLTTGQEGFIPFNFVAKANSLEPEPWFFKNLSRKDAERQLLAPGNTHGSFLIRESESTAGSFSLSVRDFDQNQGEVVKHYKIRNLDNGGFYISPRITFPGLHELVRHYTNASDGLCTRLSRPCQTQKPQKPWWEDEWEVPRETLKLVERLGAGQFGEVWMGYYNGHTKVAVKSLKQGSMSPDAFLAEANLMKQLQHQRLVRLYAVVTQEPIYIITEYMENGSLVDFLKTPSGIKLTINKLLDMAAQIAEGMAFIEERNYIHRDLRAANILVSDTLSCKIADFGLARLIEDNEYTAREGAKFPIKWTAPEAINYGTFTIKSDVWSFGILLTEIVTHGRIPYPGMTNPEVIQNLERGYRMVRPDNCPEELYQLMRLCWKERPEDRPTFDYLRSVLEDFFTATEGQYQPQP
T14 sequence (P07948 whole entry): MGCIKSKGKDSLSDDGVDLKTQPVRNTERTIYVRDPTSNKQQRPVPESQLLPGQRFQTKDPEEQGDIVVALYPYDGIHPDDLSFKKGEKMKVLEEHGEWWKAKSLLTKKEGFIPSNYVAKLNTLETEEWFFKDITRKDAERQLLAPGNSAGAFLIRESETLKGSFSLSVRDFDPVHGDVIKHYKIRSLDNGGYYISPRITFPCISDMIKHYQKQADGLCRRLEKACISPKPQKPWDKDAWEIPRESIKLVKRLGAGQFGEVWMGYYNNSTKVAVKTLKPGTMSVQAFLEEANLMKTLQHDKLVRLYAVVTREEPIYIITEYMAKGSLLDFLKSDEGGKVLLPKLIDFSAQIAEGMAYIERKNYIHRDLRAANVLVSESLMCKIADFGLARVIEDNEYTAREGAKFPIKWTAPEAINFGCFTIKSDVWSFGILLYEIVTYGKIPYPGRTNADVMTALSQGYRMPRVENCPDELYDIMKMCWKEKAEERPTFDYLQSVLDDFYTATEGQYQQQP
T12 sequence (Q16288 32-839): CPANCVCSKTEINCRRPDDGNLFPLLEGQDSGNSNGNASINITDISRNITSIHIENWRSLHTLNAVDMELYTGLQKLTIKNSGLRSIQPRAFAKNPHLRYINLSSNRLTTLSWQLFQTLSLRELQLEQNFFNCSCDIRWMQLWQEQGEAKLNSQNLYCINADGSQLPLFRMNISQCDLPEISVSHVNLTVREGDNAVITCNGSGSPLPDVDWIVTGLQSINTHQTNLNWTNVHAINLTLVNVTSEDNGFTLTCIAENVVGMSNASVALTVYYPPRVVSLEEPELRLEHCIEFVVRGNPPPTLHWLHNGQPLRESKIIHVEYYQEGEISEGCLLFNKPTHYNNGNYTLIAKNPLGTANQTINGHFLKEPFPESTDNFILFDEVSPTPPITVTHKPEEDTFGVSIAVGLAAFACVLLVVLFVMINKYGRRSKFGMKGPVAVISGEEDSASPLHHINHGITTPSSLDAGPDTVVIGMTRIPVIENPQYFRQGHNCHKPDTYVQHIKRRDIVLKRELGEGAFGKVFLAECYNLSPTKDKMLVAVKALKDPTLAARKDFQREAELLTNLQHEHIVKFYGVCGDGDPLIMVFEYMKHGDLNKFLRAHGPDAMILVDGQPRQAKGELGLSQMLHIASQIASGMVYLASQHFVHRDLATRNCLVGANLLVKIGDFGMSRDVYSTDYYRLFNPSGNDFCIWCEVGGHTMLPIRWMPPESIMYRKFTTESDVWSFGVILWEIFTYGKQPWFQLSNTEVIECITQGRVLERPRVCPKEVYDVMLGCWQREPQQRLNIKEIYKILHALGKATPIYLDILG
T11 sequence (Q8N5S9 whole entry): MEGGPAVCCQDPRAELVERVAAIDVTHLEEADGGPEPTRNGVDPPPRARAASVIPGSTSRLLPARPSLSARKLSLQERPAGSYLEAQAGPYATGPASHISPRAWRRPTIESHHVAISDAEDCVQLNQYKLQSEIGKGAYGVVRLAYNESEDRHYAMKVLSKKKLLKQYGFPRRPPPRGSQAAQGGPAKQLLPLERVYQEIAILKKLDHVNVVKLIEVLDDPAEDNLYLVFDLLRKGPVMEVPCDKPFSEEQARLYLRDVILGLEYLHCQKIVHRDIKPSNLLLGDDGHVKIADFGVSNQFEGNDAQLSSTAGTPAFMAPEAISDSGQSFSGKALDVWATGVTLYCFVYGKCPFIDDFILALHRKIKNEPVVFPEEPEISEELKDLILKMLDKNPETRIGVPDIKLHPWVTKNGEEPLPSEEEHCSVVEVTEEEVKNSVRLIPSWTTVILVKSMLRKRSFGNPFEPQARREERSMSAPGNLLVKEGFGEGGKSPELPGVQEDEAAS
T13 sequence (P22607 23-806): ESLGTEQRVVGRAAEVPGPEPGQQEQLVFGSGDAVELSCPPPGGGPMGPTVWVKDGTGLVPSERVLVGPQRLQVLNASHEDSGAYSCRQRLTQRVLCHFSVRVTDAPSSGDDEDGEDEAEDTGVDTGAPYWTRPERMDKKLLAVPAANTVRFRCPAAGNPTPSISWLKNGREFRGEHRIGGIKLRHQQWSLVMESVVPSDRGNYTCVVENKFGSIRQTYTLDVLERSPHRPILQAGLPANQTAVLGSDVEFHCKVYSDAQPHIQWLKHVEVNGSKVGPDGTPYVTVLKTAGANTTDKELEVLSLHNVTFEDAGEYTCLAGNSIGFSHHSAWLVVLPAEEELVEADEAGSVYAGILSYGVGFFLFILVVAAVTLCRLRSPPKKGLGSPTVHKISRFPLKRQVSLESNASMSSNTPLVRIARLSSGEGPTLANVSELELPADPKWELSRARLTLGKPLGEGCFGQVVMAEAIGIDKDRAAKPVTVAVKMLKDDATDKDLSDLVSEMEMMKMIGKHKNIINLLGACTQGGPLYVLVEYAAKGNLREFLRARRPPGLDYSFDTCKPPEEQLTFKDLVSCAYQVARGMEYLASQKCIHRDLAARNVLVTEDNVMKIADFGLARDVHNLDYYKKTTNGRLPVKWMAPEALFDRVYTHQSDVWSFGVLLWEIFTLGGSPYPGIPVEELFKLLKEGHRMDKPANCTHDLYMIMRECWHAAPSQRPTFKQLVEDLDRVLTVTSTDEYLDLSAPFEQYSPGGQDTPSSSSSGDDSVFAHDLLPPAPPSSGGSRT
T1 sequence (P12931 whole entry): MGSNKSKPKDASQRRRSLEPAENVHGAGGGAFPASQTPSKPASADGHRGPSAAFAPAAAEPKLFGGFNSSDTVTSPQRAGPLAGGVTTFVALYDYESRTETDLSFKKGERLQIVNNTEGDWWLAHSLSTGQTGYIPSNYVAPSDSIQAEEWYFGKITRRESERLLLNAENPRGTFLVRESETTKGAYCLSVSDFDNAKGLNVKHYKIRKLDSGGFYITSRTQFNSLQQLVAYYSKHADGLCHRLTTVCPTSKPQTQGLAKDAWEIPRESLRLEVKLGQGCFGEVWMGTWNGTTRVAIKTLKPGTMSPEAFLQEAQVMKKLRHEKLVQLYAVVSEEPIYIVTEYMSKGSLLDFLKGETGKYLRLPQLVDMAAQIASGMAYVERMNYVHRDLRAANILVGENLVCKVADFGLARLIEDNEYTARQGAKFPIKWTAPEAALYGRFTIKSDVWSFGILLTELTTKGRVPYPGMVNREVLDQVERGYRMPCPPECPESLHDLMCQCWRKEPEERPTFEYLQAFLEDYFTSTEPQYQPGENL
T5 sequence (P08069 31-1367): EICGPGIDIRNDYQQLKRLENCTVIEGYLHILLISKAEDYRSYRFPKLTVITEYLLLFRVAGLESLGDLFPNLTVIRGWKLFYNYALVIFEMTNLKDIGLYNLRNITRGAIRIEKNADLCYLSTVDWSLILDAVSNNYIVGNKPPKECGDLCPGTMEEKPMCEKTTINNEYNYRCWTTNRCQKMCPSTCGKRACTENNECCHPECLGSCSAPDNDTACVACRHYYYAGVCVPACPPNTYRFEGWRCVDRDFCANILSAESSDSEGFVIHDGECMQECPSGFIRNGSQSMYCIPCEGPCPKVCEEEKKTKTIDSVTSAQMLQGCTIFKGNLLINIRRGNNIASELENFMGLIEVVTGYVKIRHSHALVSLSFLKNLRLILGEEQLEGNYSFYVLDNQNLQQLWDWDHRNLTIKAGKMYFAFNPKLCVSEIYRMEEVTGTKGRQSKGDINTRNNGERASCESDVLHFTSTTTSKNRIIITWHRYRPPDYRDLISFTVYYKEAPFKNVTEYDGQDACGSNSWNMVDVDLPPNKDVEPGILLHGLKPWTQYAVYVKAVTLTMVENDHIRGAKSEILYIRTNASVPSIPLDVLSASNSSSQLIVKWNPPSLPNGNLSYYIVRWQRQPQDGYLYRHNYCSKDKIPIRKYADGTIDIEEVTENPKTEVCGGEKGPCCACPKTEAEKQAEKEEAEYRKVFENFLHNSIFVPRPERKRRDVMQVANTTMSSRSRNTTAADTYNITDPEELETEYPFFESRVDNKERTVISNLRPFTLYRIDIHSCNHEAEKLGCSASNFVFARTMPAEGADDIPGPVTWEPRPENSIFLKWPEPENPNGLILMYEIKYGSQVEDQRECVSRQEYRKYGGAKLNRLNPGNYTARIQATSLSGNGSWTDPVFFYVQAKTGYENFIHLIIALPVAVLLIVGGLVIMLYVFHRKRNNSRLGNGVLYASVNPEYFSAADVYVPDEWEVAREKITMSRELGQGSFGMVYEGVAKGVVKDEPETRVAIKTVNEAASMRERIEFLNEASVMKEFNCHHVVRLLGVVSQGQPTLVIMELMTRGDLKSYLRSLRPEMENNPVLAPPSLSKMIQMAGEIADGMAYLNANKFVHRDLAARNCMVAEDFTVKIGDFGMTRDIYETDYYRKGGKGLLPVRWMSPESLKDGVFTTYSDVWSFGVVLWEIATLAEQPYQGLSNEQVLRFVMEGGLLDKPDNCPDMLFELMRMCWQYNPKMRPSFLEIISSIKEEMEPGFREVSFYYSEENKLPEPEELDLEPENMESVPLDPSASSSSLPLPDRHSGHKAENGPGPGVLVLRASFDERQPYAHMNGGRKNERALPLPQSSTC

inhibition at 1 µM (c-Src): 19.3%
inhibition at 1 µM (PKA): 0%
inhibition at 1 µM (BTK): 9.53%
inhibition at 1 µM (c-Kit): 0%
inhibition at 1 µM (IGF1R): 13.4%
inhibition at 1 µM (KDR/VEGFR2): 5.49%
inhibition at 1 µM (BRAF (V599E)): 0%
inhibition at 1 µM (c-MER): 2.29%
inhibition at 1 µM (ROS/ROS1): 0%
inhibition at 1 µM (FYN): 18.3%
inhibition at 1 µM (CAMKK1): 0%
inhibition at 1 µM (TRKC): 8.78%
inhibition at 1 µM (FGFR3): 25.9%
inhibition activity for most other kinases (over 38 kinases): less than 15%
inhibition at 1 µM (LYN): 10.8%
inhibition at 1 µM (FMS): 8.11%
inhibition at 1 µM (AXL): 6.37%
inhibition at 1 µM (LCK): 7.63%
inhibition at 1 µM (CDK1/cyclin A): 0%
SMILES: O=C(C1CC1)N1CCC[C@H](Nc2nccc(-n3c(-c4ccc5c(c4)OCCO5)nc4cc(O)c(O)cc43)n2)C1 [35b, (S)-Cyclopropyl(3-((4-(2-(2,3-dihydrobenzo[b][1,4]dioxin-6-yl)-5,6-dihydroxy-1H-benzo[d]imidazol-1-yl)pyrimidin-2-yl)amino)piperidin-1-yl)methanone]
phosphorylation of c-jun induced by amyloid-β (c-jun): inhibit phosphorylation of c-jun
